# In patent US20210322582A1, “RADIOACTIVE IMIDAZOTHIADIAZOLE DERIVATIVE COMPOUND” (Nihon Medi-Physics Co., Ltd., priority 2018, published 2021):
# “And” between values parts separate entries of the source, which are not always exact repeats. Equal values may be shown once.
# What was measured:
# HT-29-transplanted tumor = assay: Biodistribution of [^111In]ITDA1 in HT-29 cancer-bearing mouse; format: in vivo; details: for Accumulation of radioactivity: Blood / Accumulation of radioactivity: Brain / Accumulation of radioactivity: Heart / Accumulation of radioactivity: Intestines / Accumulation of radioactivity: Kidney / Accumulation of radioactivity: Liver / Accumulation of radioactivity: Lungs / Accumulation of radioactivity: Muscle / Accumulation of radioactivity: Pancreas / Accumulation of radioactivity: Spleen / Accumulation of radioactivity: Stomach / Accumulation of radioactivity: Tumor (HT-29) / Tumor/blood / Tumor/muscle: HT-29 mouse
# Experimental: HT-29 cells (5×10^6 cells/mouse) were subcutaneously inoculated into the left shoulder of each of 5-week old male BALB/c nude mice (purchased from Shimizu Laboratory Supplies Co., Ltd., the same applies to the following Examples). A saline solution (100 μL) in which [^111In]ITDA1 (37 kBq) had been dissolved was administered to each of the HT-29 cancer-bearing mice (n=5) via the tail vein. The mice were slaughtered after the lapse of 1, 4, 8, and 24 hours from the administration, and the blood, spleen, pancreas, stomach, intestines, kidney, liver, heart, lungs, brain, HT-29-transplanted tumor, and muscle were recovered. The weight of each organ was measured, and the amount of radioactivity in each organ was measured by using a gamma counter. The accumulation of radioactivity in each organ was expressed by % ID (injected dose)/g obtained by dividing the ratio of the amount of radioactivity of each organ to the administered amount of radioactivity by the organ weight.
# [1] = test system: HT-29 tumor and MDA-MB-231 tumor; assay: CA-IX selectivity of [^111In]ITDA1 in cancer-bearing mouse (HT-29 vs MDA-MB-231); format: in vivo; details: 24 hours from administration
# Experimental: HT-29 cells (5×10^6 cells/mouse) and MDA-MB-231 cells (5×10^6 cells/mouse) were subcutaneously inoculated into the left shoulders of 5-week old male BALB/c nude mice, respectively. A saline solution (100 μL) in which [^111In]ITDA1 (37 kBq) had been dissolved was administered to each of the cancer-bearing mice (n=5) via the tail vein. The mice were slaughtered after the lapse of 24 hours from the administration, and the blood, transplanted tumor, and muscle were recovered from each of the mice. The weight of each organ was measured, and the amount of radioactivity in each organ was measured by using a gamma counter. The accumulation of radioactivity in each organ was expressed by % ID (injected dose)/g obtained by dividing the ratio of the amount of radioactivity of each organ to the administered amount of radioactivity by the organ weight.
structure (smiles),measurement,setting,value
"NS(=O)(=O)c1nn2cc(-c3ccc(NC(=O)CN4CCN(CC(=O)O)CCN(CC(=O)O)CCN(CC(=O)O)CC4)cc3)nc2s1.[111In+3] [[^111In]ITDA1, [^111In]indium(III)2,2′,2″-(10-(2-oxo-2-((4-(2-sulfamoylimidazo[2,1-b][1,3,4]thiadiazol-6-yl)phenyl)amino)ethyl)-1,4,7,10-tetraazacyclododecan-1,4,7-triyl) triacetic acid]",Accumulation of radioactivity: Blood,HT-29-transplanted tumor; 1 h after administration,0.27 ± 0.03 % ID/tissue weight (g)
same,Accumulation of radioactivity: Brain,HT-29-transplanted tumor; 1 h after administration,0.30 ± 0.02 % ID/tissue weight (g)
same,Accumulation of radioactivity: Heart,HT-29-transplanted tumor; 1 h after administration,7.58 ± 1.20 % ID/tissue weight (g)
same,Accumulation of radioactivity: Intestines,HT-29-transplanted tumor; 1 h after administration,10.86 ± 1.27 % ID/tissue weight (g)
same,Accumulation of radioactivity: Kidney,HT-29-transplanted tumor; 1 h after administration,111.20 ± 12.39 % ID/tissue weight (g)
same,Accumulation of radioactivity: Liver,HT-29-transplanted tumor; 1 h after administration,3.59 ± 0.98 % ID/tissue weight (g)
same,Accumulation of radioactivity: Lungs,HT-29-transplanted tumor; 1 h after administration,13.49 ± 5.52 % ID/tissue weight (g)
same,Accumulation of radioactivity: Muscle,HT-29-transplanted tumor; 1 h after administration,5.44 ± 1.59 % ID/tissue weight (g)
same,Accumulation of radioactivity: Pancreas,HT-29-transplanted tumor; 1 h after administration,31.32 ± 5.29 % ID/tissue weight (g)
same,Accumulation of radioactivity: Spleen,HT-29-transplanted tumor; 1 h after administration,0.33 ± 0.10 % ID/tissue weight (g)
same,Accumulation of radioactivity: Stomach,HT-29-transplanted tumor; 1 h after administration,2.59 ± 0.69 % ID
same,Accumulation of radioactivity: Tumor (HT-29),HT-29-transplanted tumor; 1 h after administration,3.81 ± 0.79 % ID/tissue weight (g)
same,Tumor/blood,HT-29-transplanted tumor; 1 h after administration,14.41 ± 3.35
same,Tumor/muscle,HT-29-transplanted tumor; 1 h after administration,0.74 ± 0.25
same,Accumulation of radioactivity: Blood,HT-29-transplanted tumor; 4 h after administration,0.25 ± 0.18 % ID/tissue weight (g)
same,Accumulation of radioactivity: Brain,HT-29-transplanted tumor; 4 h after administration,0.35 ± 0.05 % ID/tissue weight (g)
same,Accumulation of radioactivity: Heart,HT-29-transplanted tumor; 4 h after administration,3.49 ± 0.74 % ID/tissue weight (g)
same,Accumulation of radioactivity: Intestines,HT-29-transplanted tumor; 4 h after administration,14.20 ± 1.28 % ID/tissue weight (g)
same,Accumulation of radioactivity: Kidney,HT-29-transplanted tumor; 4 h after administration,115.12 ± 8.70 % ID/tissue weight (g)
same,Accumulation of radioactivity: Liver,HT-29-transplanted tumor; 4 h after administration,3.86 ± 0.92 % ID/tissue weight (g)
same,Accumulation of radioactivity: Lungs,HT-29-transplanted tumor; 4 h after administration,5.09 ± 1.69 % ID/tissue weight (g)
same,Accumulation of radioactivity: Muscle,HT-29-transplanted tumor; 4 h after administration,2.69 ± 0.76 % ID/tissue weight (g)
same,Accumulation of radioactivity: Pancreas,HT-29-transplanted tumor; 4 h after administration,18.81 ± 2.04 % ID/tissue weight (g)
same,Accumulation of radioactivity: Spleen,HT-29-transplanted tumor; 4 h after administration,0.31 ± 0.12 % ID/tissue weight (g)
same,Accumulation of radioactivity: Stomach,HT-29-transplanted tumor; 4 h after administration,5.22 ± 0.79 % ID
same,Accumulation of radioactivity: Tumor (HT-29),HT-29-transplanted tumor; 4 h after administration,4.20 ± 0.68 % ID/tissue weight (g)
same,Tumor/blood,HT-29-transplanted tumor; 4 h after administration,21.70 ± 8.65
same,Tumor/muscle,HT-29-transplanted tumor; 4 h after administration,1.62 ± 0.33
same,Accumulation of radioactivity: Blood,HT-29-transplanted tumor; 8 h after administration,0.18 ± 0.02 % ID/tissue weight (g)
same,Accumulation of radioactivity: Brain,HT-29-transplanted tumor; 8 h after administration,0.41 ± 0.05 % ID/tissue weight (g)
same,Accumulation of radioactivity: Heart,HT-29-transplanted tumor; 8 h after administration,2.16 ± 0.31 % ID/tissue weight (g)
same,Accumulation of radioactivity: Intestines,HT-29-transplanted tumor; 8 h after administration,14.99 ± 1.27 % ID/tissue weight (g)
same,Accumulation of radioactivity: Kidney,HT-29-transplanted tumor; 8 h after administration,83.81 ± 7.88 % ID/tissue weight (g)
same,Accumulation of radioactivity: Liver,HT-29-transplanted tumor; 8 h after administration,3.15 ± 0.78 % ID/tissue weight (g)
same,Accumulation of radioactivity: Lungs,HT-29-transplanted tumor; 8 h after administration,3.54 ± 1.19 % ID/tissue weight (g)
same,Accumulation of radioactivity: Muscle,HT-29-transplanted tumor; 8 h after administration,1.75 ± 0.37 % ID/tissue weight (g)
same,Accumulation of radioactivity: Pancreas,HT-29-transplanted tumor; 8 h after administration,9.80 ± 2.34 % ID/tissue weight (g)
same,Accumulation of radioactivity: Spleen,HT-29-transplanted tumor; 8 h after administration,0.21 ± 0.05 % ID/tissue weight (g)
same,Accumulation of radioactivity: Stomach,HT-29-transplanted tumor; 8 h after administration,6.09 ± 0.82 % ID
same,Accumulation of radioactivity: Tumor (HT-29),HT-29-transplanted tumor; 8 h after administration,5.16 ± 0.62 % ID/tissue weight (g)
same,Tumor/blood,HT-29-transplanted tumor; 8 h after administration,29.14 ± 5.15
same,Tumor/muscle,HT-29-transplanted tumor; 8 h after administration,3.03 ± 0.66
same,Accumulation of radioactivity: Blood,HT-29-transplanted tumor; 24 h after administration,0.16 ± 0.02 % ID/tissue weight (g)
same,Accumulation of radioactivity: Brain,HT-29-transplanted tumor; 24 h after administration,0.48 ± 0.03 % ID/tissue weight (g)
same,Accumulation of radioactivity: Heart,HT-29-transplanted tumor; 24 h after administration,1.56 ± 0.30 % ID/tissue weight (g)
same,Accumulation of radioactivity: Intestines,HT-29-transplanted tumor; 24 h after administration,17.99 ± 1.59 % ID/tissue weight (g)
same,Accumulation of radioactivity: Kidney,HT-29-transplanted tumor; 24 h after administration,65.13 ± 7.13 % ID/tissue weight (g)
same,Accumulation of radioactivity: Liver,HT-29-transplanted tumor; 24 h after administration,2.21 ± 0.34 % ID/tissue weight (g)
same,Accumulation of radioactivity: Lungs,HT-29-transplanted tumor; 24 h after administration,2.06 ± 0.66 % ID/tissue weight (g)
same,Accumulation of radioactivity: Muscle,HT-29-transplanted tumor; 24 h after administration,1.43 ± 0.53 % ID/tissue weight (g)
same,Accumulation of radioactivity: Pancreas,HT-29-transplanted tumor; 24 h after administration,8.13 ± 0.91 % ID/tissue weight (g)
same,Accumulation of radioactivity: Spleen,HT-29-transplanted tumor; 24 h after administration,0.42 ± 0.18 % ID/tissue weight (g)
same,Accumulation of radioactivity: Stomach,HT-29-transplanted tumor; 24 h after administration,8.74 ± 0.46 % ID
same,Accumulation of radioactivity: Tumor (HT-29),HT-29-transplanted tumor; 24 h after administration,8.71 ± 1.41 % ID/tissue weight (g)
same,Tumor/blood,HT-29-transplanted tumor; 24 h after administration,53.56 and 53.56 ± 5.53
same,Tumor/muscle,HT-29-transplanted tumor; 24 h after administration,6.59 and 6.59 ± 2.18
same,Accumulation in the HT-29-transplanted tumor,HT-29-transplanted tumor; one hour after administration,3.81 % ID/g
same,CA-IX selective tumor accumulation,[1],confirmed
same,"Transplanted tumor/blood ratio, HT-29 vs MDA-MB-231",[1],significant difference was similarly observed
same,"Transplanted tumor/muscle ratio, HT-29 vs MDA-MB-231",[1],significant difference was similarly observed
same,Amount accumulated in the HT-29 tumor vs the MDA-MB-231 tumor,"[1]; Welch's t-test, 1% significance level",significant difference was observed
